According to patent publication US4474764A, “3-Amino-2-hydroxy-4-phenylbutanoic acid derivatives and pharmaceutical composition containing the same” (Zaidan Hojin Biseibutsu Kagaku Kenkyu Kai, priority 1981, dated 1984):

How the values were obtained:
[1] = system: morphine analgesia-non-effective Wistar rats; test: Effect of enhancing morphine analgesia, tail-flick latency (Test 2); type: in vivo, rat
Protocol: Effect of enhancing morphine analgesia was tested.
To Wistar rats (10 week-age, male, body weight 250~300 g) was given intraperitoneally morphine at a dose of 0.5 mg/kg, and these rats receiving the morphine were classified into the group of morphine analgesia-effective rats and the group of morphine analgesia-non-effectiverats according to the classification method described in the "Showa Igakukai Zasshi" Vol. 39, No. 5, pages 537~542 (1979). […] The effect of analgesia was evaluated according to the method of tail-flick latency of rats described in the "Showa Igakukai Zasshi" Vol. 39, No. 5, pages 537~542 (1979). The evaluation of pain threshold of rats according to the tail-flick latency method was made as follows: Radiant heat stimulus was applied to the region of the rat tail which positioned 1 cm away from the tail tip and which had been colored black with a black-dye, and the time of latency involved in the tail flick, namely the period of time lapsing between the time of application of the heat stimulus and the time of the reflective flick response of the tail was measured. The quantity of the heat applied was so controlled that the average time of latency of the tail-flick response appearing in the control group of rats (receiving neither the test compound nor the morphine) was about 2.0 seconds. The tests were accomplished as long as the maximum value for the tail-flick latency was 7.0 seconds or less, as otherwise the skin of the rat tail could be damaged by the application of heat. In other words, if the time for the tail-flick latency was longer than 7.0 seconds, the tests were stopped to prevent the damage of the rat tail. The radiant heat stimulus was repeated 5 times for each test rat at an interval of 15 minutes and the times of latency in the flick response of the tail measured in each test were averaged. In each test, 5 rats were used.
The difference in the time of the tail-flick latency between the test rats (receiving 250 mg/kg of the test compound plus 0.5 mg/kg of morphine) and the control rats (receiving 0.5 mg/kg of morphine alone) was calculated, and the effect for enhancement of morphine analgesia was estimated in term of the value of percentages which were calculated by the following equation: [formula]

[2] = system: mice of ddy-strain; test: Analgesic activity by the acetic acid-writhing method (Test 3); type: in vivo, mouse; details: for Number of Writhings (Average value ± standard error): 30 minutes before 0.6% acetic acid i.p., counted during 15 minutes; for Suppression of writhing reactions: compared to the control group
Excerpt: Analgesic activity of test compound was estimated according to the acetic acid-writhing method.
Mice groups each containing 10 mice of ddy-strain (male, 5 weeks-aged, average body weight about 20 grams) were employed as the test animal. A suspension of the test compound, D-Phe-AHPA suspended in an aqueous solution containing 0.5% of gum arabic and 7% of an active surfectant (consisting of the reaction products of hydrogenated castor oil with polyoxyethylene, commercially available under a registered tradename "Nikkol HCO-60", a product of Nihon Nyukazai Co., Ltd., Japan) was subcutaneously injected into each mouse at a dosage of 30, 150 or 250 mg/kg of the test compound. The above-mentioned suspension so subcutaneously injected was containing the test compound at such a concentration that 0.2 ml of said suspension as injected into each mouse provided the dosage of 30 mg/kg, 150 mg/kg or 250 mg/kg of the test compound. 30 Minutes later, […] of an aqueous solution of 0.6% of acetic acid was injected intraperitoneally into the mice. 5 Minutes after the injection of the aqueous acetic acid, estimation was commenced to count the number of the writhing reaction of the treated mice (the motions such as abdominal constrictions and extensions of the treated mice as induced by the injection of acetic acid) which took place during the subsequent 15 minutes (see the Japanese medical book "Iyaku Kaihatsu Koza" Vol. 5 pages 282~286, published from Chijin-Shokan in 1971 and an English medicinal journal "Brit. J. Pharmacol." 32, pages 295~310, 1968). For control, another mice groups received the subcutaneous administration of an aqueous solution containing no test compound but containing 0.5% of gum arabic and 7% of the active surfectant (Nikkol HCO-60). The rate (%) of suppressing the writhing reactions was evaluated as compared to the control group. "Students-t-test" was employed for the statistical analysis of the test results.

[3] = target: T1, enkephalinase (Rattus norvegicus, UniProt P07861); test: Inhibitory activity against enkephalinase (Test 1); type: biochemical; details: enkephalinase from corpus striatum of rat brain; substrate methionine-enkephaline; 37° C., 1 hour; pH 7.7
T1 construct: homogenizing corpus striatum of rat brain and by partial purification of the brain homogenate; from tissue; host or cells: rat brain corpus striatum, homogenate partially purified by the method of Gorenstein et al
T1 sequence (P07861 1-750): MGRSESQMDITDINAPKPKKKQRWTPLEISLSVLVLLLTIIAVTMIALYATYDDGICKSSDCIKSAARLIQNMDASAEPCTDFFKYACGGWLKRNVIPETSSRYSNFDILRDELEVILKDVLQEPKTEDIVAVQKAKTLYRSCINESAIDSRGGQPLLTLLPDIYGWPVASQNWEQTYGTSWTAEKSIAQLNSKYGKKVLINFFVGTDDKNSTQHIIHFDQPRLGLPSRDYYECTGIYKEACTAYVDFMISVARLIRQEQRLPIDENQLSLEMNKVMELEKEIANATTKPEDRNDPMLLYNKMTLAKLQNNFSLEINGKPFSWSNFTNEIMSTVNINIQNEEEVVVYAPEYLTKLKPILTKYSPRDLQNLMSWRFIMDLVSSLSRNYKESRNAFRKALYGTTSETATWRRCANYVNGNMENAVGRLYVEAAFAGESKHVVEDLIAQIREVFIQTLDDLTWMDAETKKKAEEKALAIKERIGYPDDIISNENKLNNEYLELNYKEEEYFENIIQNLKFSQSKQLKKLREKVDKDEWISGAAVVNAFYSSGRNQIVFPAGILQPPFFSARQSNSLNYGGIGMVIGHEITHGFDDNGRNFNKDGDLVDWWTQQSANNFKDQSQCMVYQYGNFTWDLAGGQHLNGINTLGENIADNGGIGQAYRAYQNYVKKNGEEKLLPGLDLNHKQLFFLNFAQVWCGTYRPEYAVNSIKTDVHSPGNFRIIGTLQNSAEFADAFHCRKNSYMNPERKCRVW
Protocol: Inhibitory activity against enkephalinase were tested.
A preparation of enkephalinase was made by homogenizing corpus striatum of rat brain and by partial purification of the brain homogenate according to the method of Gorenstein et al (see the "Life Science" Vol. 25, 2065~2070 (1979) Pergamon Press, U.S.A.).
A test compound was dissolved in a mixture of Trishydrochloride buffered solution (pH 7.7) and an aqueous 1% Triton X100 (an active surfectant) to such a concentration that the added quantity of the test compound amounted to one-tenth of the volume of said mixture. To the solution of the test compound so prepared was added the enkephalinase, followed by incubation for five minutes at ambient temperature and further by addition of methionine-enkephaline as the substrate. The admixture so obtained was incubated at 37° C. for 1 hour and then subjected to a high-performance liquid chromatography in such a manner that the Tyr-Gly-GLy (a fragment of the methionine-enkephaline) formed by the enzymatic degradation of methionine-enkephaline was isolated in some fractions of the eluate and the quantity of Tyr-Gly-GLy was determined by an electro-chemically analysing detector. In this way, IC50 value of the test compound, namely the dose of the test compound required for 50% inhibition of the enkephalinase was measured.

[4] = system: morphine analgesia-non-effective Wistar rats; test: Effect of enhancing morphine analgesia, tail-flick latency (Test 2); type: in vivo, rat; remark: listed apart in the source

Compound: N[C@H](Cc1ccccc1)C(=O)N[C@H](Cc1ccccc1)[C@H](O)C(=O)O [Compound 10, (2S,3R)-3-N--(R)-phenylalanylamino-2-hydroxy-4-phenylbutanoic acid]
- Morphine Analgesia enhancement ([1]; 250 mg/kg test compound i.p., 10 minutes later 0.5 mg/kg morphine i.p., versus 0.5 mg/kg morphine alone, tail-flick latency): 35.0%
- Number of Writhings (Average value ± standard error) ([2]; 30 mg/kg s.c.): 48.3 ± 3.7
- Suppression of writhing reactions ([2]; 30 mg/kg s.c.): 37.4%
- Number of Writhings (Average value ± standard error) ([2]; 150 mg/kg s.c.): 43.9 ± 3.8
- Suppression of writhing reactions ([2]; 150 mg/kg s.c.): 43.1%
- Number of Writhings (Average value ± standard error) ([2]; 250 mg/kg s.c.): 31.3 ± 8.0
- Suppression of writhing reactions ([2]; 250 mg/kg s.c.): 59.4%
- Dose dependence of suppression of acetic acid-writhing reaction ([2]; 30, 150 or 250 mg/kg s.c., compound alone): suppressed the acetic acid-writhing reaction in the dosage-depending manner
- IC50 [3]: 740 µM

Compound: CN1CC[C@]23c4c5ccc(O)c4O[C@H]2[C@@H](O)C=C[C@H]3[C@H]1C5 [Morphine, morphine]
- Morphine Analgesia enhancement ([4]; morphine alone 2 mg/kg (comparative)): 28.4%
- Morphine Analgesia enhancement ([4]; morphine alone 3 mg/kg (comparative)): 35.1%
- Morphine Analgesia enhancement ([1]; morphine alone 0.5 mg/kg (comparative)): 0%
